In patent US9914731B2, “Pyrazolo[1,5-a]pyridine derivatives and methods of their use” (Ignyta, Inc., priority 2013, dated 2018) one finds IC50 data, which are given here for 20 molecules.

Some results are limits rather than exact numbers.

The target of the first assay is recombinant human baculovirus-expressed cMET (Homo sapiens (Human), UniProt P08581). The assay is described as follows: c-MET kinase assay (HTRF KinEASE). Type of assay: biochemical.
Conditions: not given
(In general: TR-FRET usually uses a lanthanide donor and a delayed reading to cut background.)
With `O=C(Nc1ccc(Oc2cccn3nccc23)c(F)c1)C1CCN(c2ccc(F)cc2)C1=O` (centres unmarked) [Example 10, 1-(4-Fluoro-phenyl)-2-oxo-pyrrolidine-3-carboxylic acid [3-fluoro-4-(pyrazolo[1,5-a]pyridin-4-yloxy)-phenyl]-amide], the IC50 lay in the range of 10 to 100 nM.

Still in this assay, the particulars now being: average of two or more determinations; read-out: c-MET IC50.
Consider `CCn1cc(C(=O)Nc2ccc(Oc3cc(-c4cn(C)cn4)cn4nccc34)c(OCc3ccccc3)c2)c(=O)n(-c2ccc(F)cc2)c1=O` [Example 119], for which the IC50 lay within 10 to 100 nM.
Still for that read-out and setting: in the case of `CCn1cc(C(=O)Nc2ccc(Oc3cc(-c4cncn4C)cn4nccc34)c(F)c2)c(=O)n(-c2ccc(F)cc2)c1=O` [Example 100, 1-Ethyl-3-(4-fluoro-phenyl)-2,4-dioxo-1,2,3,4-tetrahydro-pyrimidine-5-carboxylic acid{3-fluoro-4-[6-(3-methyl-3H-imidazol-4-yl)-pyrazolo[1,5-a]pyridin-4-yloxy]-phenyl}-amide] it was under 10 nM; in that of `O=C(Nc1ccc(Oc2cccn3nccc23)c(F)c1)c1cccn(-c2ccc(F)cc2)c1=O` [Example 4, 1-(4-Fluoro-phenyl)-2-oxo-1,2-dihydro-pyridine-3-carboxylic acid [3-fluoro-4-(pyrazolo[1,5-a]pyridin-4-yloxy)-phenyl]-amide], under 10 nM; in that of `Cc1nn(-c2ccccc2)c(C)c1C(=O)Nc1ccc(Oc2cccn3nccc23)cc1` [Example 20, 3,5-Dimethyl-1-phenyl-1H-pyrazole-4-carboxylic acid [4-(pyrazolo[1,5-a]pyridin-4-yloxy)-phenyl]-amide], 1000 to 10000 nM.
Same read-out and setting: with `O=C(Nc1ccc(Oc2cccn3nccc23)c(F)c1)c1cccn(Cc2cccc(F)c2)c1=O` [Example 9, 1-(3-Fluoro-benzyl)-2-oxo-1,2-dihydro-pyridine-3-carboxylic acid [3-fluoro-4-(pyrazolo[1,5-a]pyridin-4-yloxy)-phenyl]-amide] the figure was 101 to 1000 nM; with `CCNc1ccn(-c2ccc(F)cc2)c(=O)c1C(=O)Nc1ccc(Oc2cccn3nccc23)c(F)c1` [Example 15, 4-Ethylamino-1-(4-fluoro-phenyl)-2-oxo-1,2-dihydro-pyridine-3-carboxylic acid [3-fluoro-4-(pyrazolo[1,5-a]pyridin-4-yloxy)-phenyl]-amide], 10 to 100 nM; with `CC(C)n1cc(C(=O)Nc2ccc(Oc3cc(-c4ncccn4)cn4nccc34)c(F)c2)c(=O)n(-c2ccc(F)cc2)c1=O` [Example 133, 3-(4-Fluoro-phenyl)-1-isopropyl-2,4-dioxo-1,2,3,4-tetrahydro-pyrimidine-5-carboxylic acid[3-fluoro-4-(6-pyrimidin-2-yl-pyrazolo[1,5-a]pyridin-4-yloxy)-phenyl]-amide], 10 to 100 nM.
On the same count and under the same terms, in the case of `O=C(Nc1ccc(Oc2cc(N3CCCC3=O)cn3nccc23)c(F)c1)c1cccn(-c2ccc(F)cc2)c1=O` [Example 76, 1-(4-Fluoro-phenyl)-2-oxo-1,2-dihydro-pyridine-3-carboxylic acid{3-fluoro-4-[6-(2-oxo-pyrrolidin-1-yl)-pyrazolo[1,5-a]pyridin-4-yloxy]-phenyl}-amide] it was under 10 nM; in that of “1-Methyl-5-trifluoromethyl-1H-pyrazole-4-carboxylic acid [4-(pyrazolo[1, 5-a]pyridin-4-yloxy)-phenyl]-amide [Example 17]”, 1000 to 10000 nM; in that of `O=C(Nc1ccc(Oc2cccn3nccc23)c(F)c1)c1c(I)ccn(-c2ccc(F)cc2)c1=O` [Example 12, 1-(4-Fluoro-phenyl)-4-iodo-2-oxo-1,2-dihydro-pyridine-3-carboxylic acid [3-fluoro-4-(pyrazolo[1,5-a]pyridin-4-yloxy)-phenyl]-amide], 10 to 100 nM.
Take `CC(C)n1cc(C(=O)Nc2ccc(Oc3cc(-c4cn(C)cn4)cn4nccc34)nc2)c(=O)n(-c2ccc(F)cc2)c1=O` [Example 116, 3-(4-Fluoro-phenyl)-1-isopropyl-2,4-dioxo-1,2,3,4-tetrahydro-pyrimidine-5-carboxylic acid{6-[6-(1-methyl-1H-imidazol-4-yl)-pyrazolo[1,5-a]pyridin-4-yloxy]-pyridin-3-yl}-amide]: the 50% inhibitory concentration (IC50) was under 10 nM.
Consider `CCn1cc(C(=O)Nc2ccc(Oc3cc(-c4cn(C)cn4)cn4nccc34)c(O)c2)c(=O)n(-c2ccc(F)cc2)c1=O` [Example 120, 1-Ethyl-3-(4-fluoro-phenyl)-2,4-dioxo-1,2,3,4-tetrahydro-pyrimidine-5-carboxylic acid{3-hydroxy-4-[6-(1-methyl-1H-imidazol-4-yl)-pyrazolo[1,5-a]pyridin-4-yloxy]-phenyl}-amide], for which the half-maximal inhibitory concentration (IC50) is 10 to 100 nM.
Same read-out and setting: with `Cn1cnc(-c2cc(Oc3ccc(NS(=O)(=O)c4ccc(F)cc4)cc3F)c3ccnn3c2)c1` [Example 153, 4-Fluoro-N-{3-fluoro-4-[6-(1-methyl-1H-imidazol-4-yl)-pyrazolo[1,5-a]pyridin-4-yloxy]-phenyl}-benzenesulfonamide] the figure was 1000 to 10000 nM.
Same read-out and setting: in the case of `O=C(Nc1ccc(Oc2cc(N3CCCC3)cn3nccc23)c(F)c1)c1cccn(-c2ccc(F)cc2)c1=O` [Example 75, 1-(4-Fluoro-phenyl)-2-oxo-1,2-dihydro-pyridine-3-carboxylic acid[3-fluoro-4-(6-pyrrolidin-1-yl-pyrazolo[1,5-a]pyridin-4-yloxy)-phenyl]-amide] it was under 10 nM.
Consider `CC(C)n1cc(C(=O)Nc2ccc(Oc3cc(-c4cscn4)cn4nccc34)c(F)c2)c(=O)n(-c2ccc(F)cc2)c1=O` [Example 106, 3-(4-Fluoro-phenyl)-1-isopropyl-2,4-dioxo-1,2,3,4-tetrahydro-pyrimidine-5-carboxylic acid[3-fluoro-4-(6-thiazol-4-yl-pyrazolo[1,5-a]pyridin-4-yloxy)-phenyl]-amide], for which the half-maximal inhibitory concentration (IC50) was under 10 nM.
As to `Cn1cnc(-c2cc(Oc3ccc(NC(=O)c4cn(CCO)c(=O)n(-c5ccc(F)cc5)c4=O)cc3F)c3ccnn3c2)c1` [Example 97, 3-(4-Fluoro-phenyl)-1-(2-hydroxy-ethyl)-2,4-dioxo-1,2,3,4-tetrahydro-pyrimidine-5-carboxylic acid{3-fluoro-4-[6-(1-methyl-1H-imidazol-4-yl)-pyrazolo[1,5-a]pyridin-4-yloxy]-phenyl}-amide], the concentration for half-maximal inhibition (IC50) is under 10 nM.
Still for that read-out and setting: in the case of `CC(C)n1cc(C(=O)Nc2ccc(Oc3cc(-c4cnccn4)cn4nccc34)c(F)c2)c(=O)n(-c2ccc(F)cc2)c1=O` [Example 135, 3-(4-Fluoro-phenyl)-1-isopropyl-2,4-dioxo-1,2,3,4-tetrahydro-pyrimidine-5-carboxylic acid[3-fluoro-4-(6-pyrazin-2-yl-pyrazolo[1,5-a]pyridin-4-yloxy)-phenyl]-amide] it was 10 to 100 nM.

Staying with this assay, now noted: read-out: c-MET IC50.
Take `CC(C)n1cc(C(=O)Nc2ccc(Oc3cc(-c4ncco4)cn4nccc34)c(F)c2)c(=O)n(-c2ccc(F)cc2)c1=O` [Example 99, 3-(4-Fluoro-phenyl)-1-isopropyl-2,4-dioxo-1,2,3,4-tetrahydro-pyrimidine-5-carboxylic acid[3-fluoro-4-(6-oxazol-2-yl-pyrazolo[1,5-a]pyridin-4-yloxy)-phenyl]-amide]: the IC50 was under 10 nM.
As for `CCOc1ccn(-c2ccc(F)cc2)c(=O)c1C(=O)Nc1ccc(Oc2cc(N3CCOCC3)cn3nccc23)c(F)c1` [Example 66, 4-Ethoxy-1-(4-fluoro-phenyl)-2-oxo-1,2-dihydro-pyridine-3-carboxylic acid [3-fluoro-4-(6-morpholin-4-yl-pyrazolo[1,5-a]pyridin-4-yloxy)-phenyl]-amide], the IC50 is under 10 nM.

As usually defined, the IC50 is the concentration that gives 50% inhibition.
